Assay results as given in US7094930B2, “Pharmaceutically acceptable salts of sertraline and pharmaceutical compositions thereof” (Pfizer Inc, priority 2003, dated 2006).
Where a name gives a salt, the structure may show the parent alone.

Key:
Assay type in all cases: physicochemical
aqueous solubility = experiment: aqueous solubility
[1] = hygroscopicity at relative humidity
pH in aqueous solution = details: (native) pH of the aqueous solution of the salt

aqueous solubility (aqueous solubility) [µg/mL] | hygroscopicity ([1]; at 100% relative humidity) | pH in aqueous solution (pH in aqueous solution) | hygroscopicity ([1]; at 90% relative humidity) | SMILES
4800 | less than 0.1% | 3.0 | – | CN[C@H]1CC[C@@H](c2ccc(Cl)c(Cl)c2)c2ccccc21 [sertraline L-tartaric acid salt, L-Tartaric Acid Salt of Sertraline]
2800 | – | 3.4 | approximately 0.3% | CN[C@H]1CC[C@@H](c2ccc(Cl)c(Cl)c2)c2ccccc21 [sertraline fumaric acid salt, Fumaric Acid Salt of Sertraline]
900 | – | 4.6 | approximately 0.3% | CN[C@H]1CC[C@@H](c2ccc(Cl)c(Cl)c2)c2ccccc21 [sertraline benzenesulfonic acid salt, Benzenesulfonic Acid Salt of Sertraline]
520 | approximately 0.1% | 5.2 | – | CN[C@H]1CC[C@@H](c2ccc(Cl)c(Cl)c2)c2ccccc21 [sertraline benzoic acid salt, Benzoic Acid Salt of Sertraline]
1500 | approximately 0.4% | 4.6 | – | CN[C@H]1CC[C@@H](c2ccc(Cl)c(Cl)c2)c2ccccc21 [sertraline (−)-camphor-10-sulfonic acid salt] [(−)-Camphor-10-sulfonic Acid Salt of Sertraline]
400 | – | 4.1 | approximately 0.1% | CN[C@H]1CC[C@@H](c2ccc(Cl)c(Cl)c2)c2ccccc21 [sertraline p-toluenesulfonic acid salt, P-Toluenesulfonic Acid Salt of Sertraline]
